This passage reports IC50, Activity and Ki results from ChEMBL document CHEMBL2157891 (J Med Chem, 2012).

Test [1] concerns MDA-MB-231. In words: cells. Particulars: Homo sapiens, MDA-MB-231, 96 h.
The test system of test [2] is SK-OV-3. In words: cells. Conditions: Homo sapiens, SK-OV-3, 96 h.
The test system of test [3] is MDA-MB-231. In words: Induction of apoptosis in human MDA-MB-231 cells assessed as caspase 3 cleavage at 10 nM after 24 hrs by Western blot analysis. The test is classed as functional, cell-based. A general note: In western blotting, separated proteins are transferred to a membrane and probed.
The subject of test [4] is MDA-MB-231. Put plainly: Induction of apoptosis in human MDA-MB-231 cells assessed as caspase 8 cleavage at 10 nM after 24 hrs by Western blot analysis. Type of test: functional, cell-based.
The subject of test [5] is MDA-MB-231. Put plainly: Induction of apoptosis in human MDA-MB-231 cells assessed as PARP cleavage at 300 nM after 24 hrs by Western blot analysis. The test is classed as functional, cell-based.
The subject of test [6] is SK-OV-3. Put plainly: Induction of apoptosis in human SKOV3 cells assessed as caspase 3 cleavage at 10 nM after 24 hrs by Western blot analysis. The test is classed as functional, cell-based.
In test [7] the test system is SK-OV-3. Put plainly: Induction of apoptosis in human SKOV3 cells assessed as caspase 8 cleavage at 10 nM after 24 hrs by Western blot analysis. Type of test: functional, cell-based.
Test [8] deals with SK-OV-3. In words: Induction of apoptosis in human SKOV3 cells assessed as PARP cleavage at 300 nM after 24 hrs by Western blot analysis. Type of test: functional, cell-based.
Test [9] addresses Baculoviral IAP repeat-containing protein 2 (Homo sapiens, UniProt Q13490). Put plainly: Binding affinity to BIR3 domain of cIAP1 by fluorescence polarization assay.
Test [10] has as its system MDA-MB-231. Put plainly: Induction of apoptosis in human MDA-MB-231 cells assessed as caspase 3 cleavage at 3 nM after 24 hrs by Western blot analysis. Type of test: functional, cell-based.
Test [11] concerns MDA-MB-231. Put plainly: Induction of apoptosis in human MDA-MB-231 cells assessed as caspase 8 cleavage at 3 nM after 24 hrs by Western blot analysis. The test is classed as functional, cell-based.
Test [12] has as its system MDA-MB-231. In words: Induction of apoptosis in human MDA-MB-231 cells assessed as PARP cleavage at 3 nM after 24 hrs by Western blot analysis. The test is classed as functional, cell-based.
The subject of test [13] is SK-OV-3. In words: Induction of apoptosis in human SKOV3 cells assessed as caspase 3 cleavage at 3 nM after 24 hrs by Western blot analysis. Type of test: functional, cell-based.
Test [14] concerns SK-OV-3. In words: Induction of apoptosis in human SKOV3 cells assessed as caspase 8 cleavage at 3 nM after 24 hrs by Western blot analysis. Type of test: functional, cell-based.
Test [15] concerns SK-OV-3. Put plainly: Induction of apoptosis in human SKOV3 cells assessed as PARP cleavage at 3 nM after 24 hrs by Western blot analysis. The test is classed as functional, cell-based.

Active and inactive are the calls of the source. No cut-off for these calls is given here.

A word on the IC50: it is the concentration that gives 50% inhibition. Low readings indicate higher potency, high ones lower potency. For `CN[C@@H](C)C(=O)N[C@H]1CN(C(=O)c2ccc(C(=O)N3CC[C@H]4CC[C@@H](C(=O)NC(c5ccccc5)c5ccccc5)N4C(=O)[C@@H](NC(=O)[C@H](C)NC)C3)cc2)CC[C@H]2CC[C@@H](C(=O)NC(c3ccccc3)c3ccccc3)N2C1=O`, the results for the IC50 in test [1] and in test [2] were 0.0508 µM and 0.18 µM, respectively.
The corresponding values for `CN[C@@H](C)C(=O)N[C@H]1CN(C(=O)CCCCCCC(=O)N2CC[C@H]3CC[C@@H](C(=O)NC(c4ccccc4)c4ccccc4)N3C(=O)[C@@H](NC(=O)[C@H](C)NC)C2)CC[C@H]2CC[C@@H](C(=O)NC(c3ccccc3)c3ccccc3)N2C1=O` are 0.0172 µM and 0.011 µM.
As to `CN[C@@H](C)C(=O)N[C@H]1CN(C(C)=O)CC[C@H]2CC[C@@H](C(=O)NC(c3ccccc3)c3ccccc3)N2C1=O`, the outcome in test [3], in [4], in [5], in test [6], in test [7] and in [8] was Active. In addition, the IC50 in test [1] was 0.115 µM; in test [2] it was 0.25 µM.
In the case of `CN[C@@H](C)C(=O)N[C@H]1CN(C(=O)CCCCCCCCCCC(=O)N2CC[C@H]3CC[C@@H](C(=O)NC(c4ccccc4)c4ccccc4)N3C(=O)[C@@H](NC(=O)[C@H](C)NC)C2)CC[C@H]2CC[C@@H](C(=O)NC(c3ccccc3)c3ccccc3)N2C1=O`, the IC50 in [1] was 0.0106 µM; in test [2], 0.012 µM.
In the case of `CN[C@@H](C)C(=O)N[C@H]1CN(C(=O)CCCCC(=O)N2CC[C@H]3CC[C@@H](C(=O)NC(c4ccccc4)c4ccccc4)N3C(=O)[C@@H](NC(=O)[C@H](C)NC)C2)CC[C@H]2CC[C@@H](C(=O)NC(c3ccccc3)c3ccccc3)N2C1=O`, the figures for the IC50 in test [1] and in [2] were 0.0148 µM and 0.0099 µM, respectively.
On the same counts, the results for `CN[C@@H](C)C(=O)N[C@H]1CN(C(=O)CCC(=O)N2CC[C@H]3CC[C@@H](C(=O)NC(c4ccccc4)c4ccccc4)N3C(=O)[C@@H](NC(=O)[C@H](C)NC)C2)CC[C@H]2CC[C@@H](C(=O)NC(c3ccccc3)c3ccccc3)N2C1=O` are 0.0138 µM and 0.027 µM.
In general, Ki refers to a measure of affinity in units of concentration, obtained from inhibition or displacement. A low value points to higher affinity. Take `CN[C@@H](C)C(=O)N[C@H]1CCCC[C@H]2CC[C@@H](C(=O)N[C@@H](c3ccccc3)c3cn(CCCCc4ccc(CCCCn5cc([C@@H](NC(=O)[C@@H]6CC[C@@H]7CCCC[C@H](NC(=O)[C@H](C)NC)C(=O)N76)c6ccccc6)nn5)cc4)nn3)N2C1=O`: the Ki in [9] amounted to 0.0005 µM. The IC50 in test [1] turned out to be 0.0068 µM; in test [2], 0.016 µM.
For the compound `CN[C@@H](C)C(=O)N[C@H]1CN(C(=O)CCCCCCCCC(=O)N2CC[C@H]3CC[C@@H](C(=O)NC(c4ccccc4)c4ccccc4)N3C(=O)[C@@H](NC(=O)[C@H](C)NC)C2)CC[C@H]2CC[C@@H](C(=O)NC(c3ccccc3)c3ccccc3)N2C1=O`, the outcome in test [10], in [11], in test [12], in [13], in [14] and in [15] was Active. Besides, the IC50 in test [1] was 0.0075 µM; in [2], 0.0031 µM.
On to `CN[C@@H](C)C(=O)N[C@H]1CCCC[C@H]2CC[C@@H](C(=O)N[C@@H](c3ccccc3)c3cn(CCCCCCCCn4cc([C@@H](NC(=O)[C@@H]5CC[C@@H]6CCCC[C@H](NC(=O)[C@H](C)NC)C(=O)N65)c5ccccc5)nn4)nn3)N2C1=O`, for which, in [9], the IC50 amounted to 0.0028 µM and the Ki was less than 0.0005 µM.
Turning to `CN[C@@H](C)C(=O)N[C@H]1CN(C(=O)CCCCc2ccc(CCCCC(=O)N3CC[C@H]4CC[C@@H](C(=O)NC(c5ccccc5)c5ccccc5)N4C(=O)[C@@H](NC(=O)[C@H](C)NC)C3)cc2)CC[C@H]2CC[C@@H](C(=O)NC(c3ccccc3)c3ccccc3)N2C1=O`, the outcome in [10], in [11], in [12], in [13], in test [14] and in test [15] was Active. The values for the IC50 in [1] and in test [2] were 0.0034 µM and 0.0096 µM, respectively.
Regarding `CN[C@@H](C)C(=O)N[C@H]1CN(C(=O)CCCCOCCCCC(=O)N2CC[C@H]3CC[C@@H](C(=O)NC(c4ccccc4)c4ccccc4)N3C(=O)[C@@H](NC(=O)[C@H](C)NC)C2)CC[C@H]2CC[C@@H](C(=O)NC(c3ccccc3)c3ccccc3)N2C1=O`, the IC50 in test [1] and in test [2] was 0.0047 µM in each case.
